The structures appear in SMILES notation.

The text below walks through data of paper PMC6934184, “Selective DNA-PKcs inhibition extends the therapeutic index of localized radiotherapy and chemotherapy” (The Journal of Clinical Investigation, 2019).

The target in this test is T1, PI4KA (PI4K alpha) (Homo sapiens, UniProt P42356).
T1 construct: purchased Thermo Fisher Scientific (Life Technologies) SelectScreen
Put plainly: SelectScreen Adapta. The test is classed as biochemical. The note with it: ATP 10 µM. As to the method:
The in vitro kinase selectivity of NU5455 was determined using the SelectScreen Broad Assay Panel (Thermo Fisher Scientific) involving activity and binding assays (Supplemental Table 1). […] Class IA PI3Ks were measured using the p85α subunit.
Kinase [ATP] % Assay Kinase [ATP] % Assay Kinase [ATP] % Assay Kinase [ATP] % Assay […]
SGK (SGK1) Km app 8.5 Z MAP4K2 (GCK) Km app 2.7 Z TLK2 n/a -0.3 L STK38 (NDR) n/a -5.9 L
MERTK (cMER) Km app 8.3 Z CDK2/cyclin A Km app 2.7 Z TGFBR1 (ALK5) n/a -0.4 L MATK (HYL) Km app -6.3 Z
FYN Km app 8.3 Z EPHA1 Km app 2.7 Z CLK3 Km app -0.5 Z ABL1 E255K Km app -6.6 Z
TEC n/a 8.1 L CDK2/cyclin E1 n/a 2.7 L MAP3K14 (NIK) n/a -0.5 L STK17A (DRAK1) n/a -6.6 L
KIT V654A n/a 8.1 L TESK2 n/a 2.7 L AKT3 (PKB gamma) Km app -0.5 Z JAK2 JH1 JH2 Km app -6.7 Z
ROS1 Km app 8.0 Z SPHK1 Km app 2.7 A MAP3K9 (MLK1) Km app -0.5 Z PRKACB (PRKAC beta) n/a -6.8 L
FGFR3 K650E Km app 7.9 Z AMPK A2/B1/G1 Km app 2.6 Z IKBKB (IKK beta) Km app -0.6 Z PDGFRA (PDGFR alpha) Km app -6.8 Z
RAF1 (cRAF) Y340D Y341D 100 7.9 Z DYRK3 Km app 2.6 Z CAMK2A (CaMKII alpha) Km app -0.6 Z NEK9 Km app -7.2 Z
PI4KA (PI4K alpha) 10 7.8 A CSNK1D (CK1 delta) Km app 2.6 Z PRKCB1 (PKC beta I) Km app -0.7 Z PDK1 Km app -7.3 Z
HIPK2 Km app 7.8 Z ACVR2A n/a 2.5 L TTK n/a -0.7 L RPS6KB1 (p70S6K) Km app -7.8 Z
CSK Km app 7.6 Z DDR2 T654M n/a 2.5 L ZAK n/a -0.7 L STK38L (NDR2) n/a -8.4 L
PRKCG (PKC gamma) Km app 7.6 Z JAK2 Km app 2.5 Z IKBKE (IKK epsilon) Km app -0.7 Z ABL1 G250E Km app -8.5 Z
SRMS (Srm) Km app 7.5 Z HIPK3 (YAK1) Km app 2.5 Z CAMK2G (CaMKII gamma) n/a -0.8 L PRKD1 (PKC mu) Km app -8.5 Z
YES1 Km app 7.4 Z AMPK (A1/B1/G2) n/a 2.4 L TLK1 n/a -0.8 L CDK5/p35 Km app -8.6 Z
RPS6KA5 (MSK1) Km app 7.4 Z MYO3B (MYO3 beta) n/a 2.3 L MAPK12 (p38 gamma) Km app -0.8 Z PDGFRA T674I Km app -8.9 Z
TNIK n/a 7.3 L PASK Km app 2.3 Z PRKCI (PKC iota) Km app -0.8 Z BLK Km app -8.9 Z
FER Km app 7.1 Z ACVRL1 (ALK1) n/a 2.3 L PKN2 (PRK2) n/a -1.0 L PRKD2 (PKD2) Km app -9.1 Z
CDK16 (PCTK1)/cyclin Y n/a 7.0 L EGFR (ErbB1) L861Q Km app 2.2 Z PIM1 Km app -1.0 Z CSNK1G2 (CK1 gamma 2) Km app -9.3 Z
MST4 Km app 6.9 Z RPS6KA3 (RSK2) Km app 2.1 Z CDK5/p25 Km app -1.1 Z ROCK1 Km app -9.5 Z
FLT1 (VEGFR1) Km app 6.5 Z STK23 (MSSK1) Km app 2.0 Z SRPK1 Km app -1.1 Z PRKCB2 (PKC beta II) Km app -9.6 Z
DYRK1A Km app 6.4 Z ALK R1275Q n/a 2.0 L BRSK1 (SAD1) Km app -1.1 Z CSNK1G1 (CK1 gamma 1) Km app -9.9 Z
PRKCD (PKC delta) Km app 6.2 Z TBK1 Km app 2.0 Z MAP3K3 (MEKK3) n/a -1.1 L ABL2 (Arg) Km app -10.3 Z
EGFR (ErbB1) Km app 6.0 Z ACVR1B (ALK4) Km app 2.0 Z AMPK A1/B1/G1 Km app -1.2 Z STK3 (MST2) Km app -10.3 Z
CDC7/DBF4 n/a 6.0 L CDK3/cyclin E1 n/a 1.9 L WNK3 n/a -1.2 L CAMK4 (CaMKIV) Km app -10.4 Z
JAK3 Km app 6.0 Z KDR (VEGFR2) Km app 1.8 Z LATS1 n/a -1.3 L MKNK1 (MNK1) Km app -10.7 Z
MAPK13 (p38 delta) Km app 5.8 Z ULK1 n/a 1.8 L DMPK n/a -1.5 L FLT3 ITD n/a -11.6 L
FRAP1 (mTOR) Km app 5.7 Z AURKB (Aurora B) Km app 1.7 Z CDK2/cyclin A1 n/a -1.6 L CHEK2 (CHK2) Km app -11.7 Z
KIT Y823D n/a 5.6 L LRRK2 Km app 1.7 A LIMK1 n/a -1.7 L LTK (TYK1) Km app -13.1 Z
ITK Km app 5.5 Z MAP2K3 (MEK3) n/a 1.6 L DYRK1B Km app -1.8 Z JAK2 JH1 JH2 V617F Km app -13.8 Z
KIT Km app 5.3 Z DAPK1 Km app 1.6 A DDR1 n/a -1.8 L EPHA8 Km app -13.8 Z
CDK7/cyclin H/MNAT1 Km app 5.3 A EPHA6 n/a 1.6 L BTK Km app -2.0 Z EGFR (ErbB1) T790M L858R Km app -14.1 Z
RET Km app 5.2 Z MAP4K1 (HPK1) n/a 1.6 L ADRBK1 (GRK2) Km app -2.0 Z MET M1250T Km app -14.5 Z […]

T1 sequence (P42356 whole entry): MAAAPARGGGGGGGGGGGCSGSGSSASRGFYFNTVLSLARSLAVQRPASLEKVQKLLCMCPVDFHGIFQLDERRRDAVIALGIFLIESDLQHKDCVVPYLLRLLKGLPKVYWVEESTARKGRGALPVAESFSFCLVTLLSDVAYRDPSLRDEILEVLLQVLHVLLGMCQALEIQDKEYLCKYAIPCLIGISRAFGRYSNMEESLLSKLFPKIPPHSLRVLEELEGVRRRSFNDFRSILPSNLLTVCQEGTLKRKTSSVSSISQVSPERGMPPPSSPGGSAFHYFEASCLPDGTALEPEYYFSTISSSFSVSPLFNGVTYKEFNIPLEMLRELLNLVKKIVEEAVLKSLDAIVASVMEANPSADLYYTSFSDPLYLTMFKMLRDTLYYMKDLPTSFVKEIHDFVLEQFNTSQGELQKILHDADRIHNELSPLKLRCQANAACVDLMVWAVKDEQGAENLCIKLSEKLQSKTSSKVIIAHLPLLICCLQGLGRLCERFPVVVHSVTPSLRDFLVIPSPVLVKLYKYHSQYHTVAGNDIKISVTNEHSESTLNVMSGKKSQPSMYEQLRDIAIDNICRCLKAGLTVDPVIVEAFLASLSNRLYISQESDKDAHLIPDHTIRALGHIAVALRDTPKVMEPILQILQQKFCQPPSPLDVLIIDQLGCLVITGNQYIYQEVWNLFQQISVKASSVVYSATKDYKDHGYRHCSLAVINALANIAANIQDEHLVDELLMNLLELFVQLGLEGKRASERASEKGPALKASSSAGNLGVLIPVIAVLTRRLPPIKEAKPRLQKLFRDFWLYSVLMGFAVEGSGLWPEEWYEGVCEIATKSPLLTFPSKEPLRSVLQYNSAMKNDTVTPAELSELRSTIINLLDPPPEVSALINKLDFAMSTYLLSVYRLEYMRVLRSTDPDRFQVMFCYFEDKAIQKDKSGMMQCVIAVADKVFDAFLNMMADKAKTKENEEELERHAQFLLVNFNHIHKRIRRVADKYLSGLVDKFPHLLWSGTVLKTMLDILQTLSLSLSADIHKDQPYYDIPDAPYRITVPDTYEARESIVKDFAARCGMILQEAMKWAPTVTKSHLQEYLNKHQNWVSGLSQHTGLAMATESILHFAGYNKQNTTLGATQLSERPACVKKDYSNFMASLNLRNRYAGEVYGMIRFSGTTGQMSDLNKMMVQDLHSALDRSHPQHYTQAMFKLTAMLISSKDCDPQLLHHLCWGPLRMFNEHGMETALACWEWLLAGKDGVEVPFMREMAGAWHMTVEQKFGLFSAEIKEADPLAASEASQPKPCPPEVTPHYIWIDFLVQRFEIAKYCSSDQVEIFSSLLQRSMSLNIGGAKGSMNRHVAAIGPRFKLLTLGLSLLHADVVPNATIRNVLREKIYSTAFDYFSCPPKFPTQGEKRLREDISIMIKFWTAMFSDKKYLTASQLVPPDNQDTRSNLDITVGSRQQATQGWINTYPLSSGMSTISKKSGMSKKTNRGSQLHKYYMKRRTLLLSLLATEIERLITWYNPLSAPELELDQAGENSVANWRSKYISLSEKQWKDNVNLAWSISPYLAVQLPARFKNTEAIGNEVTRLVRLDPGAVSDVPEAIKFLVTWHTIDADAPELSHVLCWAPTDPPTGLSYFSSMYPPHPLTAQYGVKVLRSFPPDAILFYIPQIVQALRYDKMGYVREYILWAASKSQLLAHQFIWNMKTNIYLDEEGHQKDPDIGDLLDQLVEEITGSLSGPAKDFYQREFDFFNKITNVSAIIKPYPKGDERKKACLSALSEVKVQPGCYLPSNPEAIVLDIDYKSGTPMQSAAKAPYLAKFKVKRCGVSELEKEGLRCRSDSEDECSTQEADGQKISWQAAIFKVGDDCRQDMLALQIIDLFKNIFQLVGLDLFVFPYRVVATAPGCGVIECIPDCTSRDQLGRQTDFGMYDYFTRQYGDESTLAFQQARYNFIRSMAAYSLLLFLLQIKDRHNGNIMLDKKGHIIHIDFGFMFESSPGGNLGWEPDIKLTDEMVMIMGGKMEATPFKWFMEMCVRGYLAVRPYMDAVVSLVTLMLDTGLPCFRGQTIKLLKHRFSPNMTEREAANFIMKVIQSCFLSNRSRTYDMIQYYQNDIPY

A word on the inhibition: it is the percentage by which the read-out fell short of the control. In turn, `CN(C(=O)CN1CCOCC1)c1ccc2sc3c(-c4cccc5c(=O)cc(N6CC7CCC(C6)O7)oc45)cccc3c2c1` [NU5455] showed an inhibition at 1 µM of 7.8%.
